Holding throughout (type): in vivo
In assay [1] the test system is Eiysiphe graminis f. sp. tritici. Kind of assay: Test A: wheat powdery mildew, preventive spray on wheat seedlings. Particulars: for Test A disease control rating: wheat powdery mildew; for Test A disease control rating (100 = 100% disease control, 0 = no disease control): wheat seedlings sprayed to run-off, inoculated the following day, rating relative to controls, unmarked compounds (standard test rate). A digest of the protocol:
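Compounds (3% acetone, 250 ppm Trem 014) sprayed to run-off on wheat seedlings, inoculated next day with spore dust. Incubated 7 days at 20° C before disease rating, 0–100% control relative to untreated controls.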

For the next assay, the system named is Puccinia recondita. Kind of assay: Test B: wheat leaf rust, preventive spray on wheat seedlings. Particulars: for Test B disease control rating: wheat leaf rust; for Test B disease control rating (100 = 100% disease control, 0 = no disease control): wheat seedlings sprayed to run-off, inoculated the following day, rating relative to controls, unmarked compounds (standard test rate). Summed up: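 Wheat seedlings were sprayed to run-off with compound (3% acetone, 250 ppm Trem 014), then inoculated with P. recondita spores the next day. They were held 24 h saturated at 20 °C, then 6 days at 20 °C. Ratings are 0–100% disease control versus controls.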

The subject of a further assay is Pyricularia oryzae. Particulars: for Test C disease control rating: rice blast; for Test C disease control rating (100 = 100% disease control, 0 = no disease control): rice seedlings sprayed to run-off, inoculated the following day, rating relative to controls, unmarked compounds (standard test rate).
The next assay has as its system Phytophthora infestans. Particulars: for Test D disease control rating: tomato late blight; for Test D disease control rating (100 = 100% disease control, 0 = no disease control): tomato seedlings sprayed to run-off, inoculated the following day, rating relative to controls, unmarked compounds (standard test rate).
In the next assay the test system is Botrytis cinerea. Kind of assay: Test E: gray mold, preventive spray on cucumber seedlings. Particulars: for Test E disease control rating: gray mold on cucumber; for Test E disease control rating (100 = 100% disease control, 0 = no disease control): cucumber seedlings sprayed to run-off, inoculated the following day, rating relative to controls, unmarked compounds (standard test rate). Summed up: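 Compounds in 3% acetone were suspended with 250 ppm Trem 014 surfactant and sprayed to run-off on cucumber seedlings. B. cinerea spores were inoculated next day, then 48 h saturated humidity at 20° C and 5 days at 20° C. Disease control rated 0–100% versus controls.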

Where [2] appears, read: 100 = 100% disease control, 0 = no control relative to controls, unmarked entries (standard test concentration).
Setting [3] is: 100 = 100% disease control, 0 = no control, unmarked entries (standard test concentration).

Read-outs that look alike come from different tables or passages of the source.

Consider `C[C@H](COc1cccc(I)c1)NC(=O)C(C#N)C(C)(C)C` (single isomer, unassigned) [12b], for which the “Test A disease control rating” value in assay [1] (setting [2]) is given as 77%. Also, the “Test B disease control rating” value in the assay with Puccinia recondita (setting [3]) is on record as 0%. The “Test C disease control rating” value in the assay with Pyricularia oryzae (setting [3]) is recorded as 94%. Besides, in the assay on Phytophthora infestans (setting [3]), the “Test D disease control rating” value is 68%. Further, the “Test E disease control rating” value in the assay on Botrytis cinerea (setting [3]) is given as 0%.

Turning to `CCC1(C(=O)NCCCn2cccc2C#N)C(C)C1(Cl)Cl` (centres unmarked) [compound 149], in assay [1] (setting [2]), the “Test A disease control rating” value is 30%. Also, the “Test B disease control rating” value in the assay with Puccinia recondita (setting [3]) is given as 27%. Moreover, the “Test C disease control rating” value in the assay with Pyricularia oryzae (setting [3]) is reported as 53%. For the same compound, the “Test D disease control rating” value in the assay on Phytophthora infestans (setting [3]) is reported as 0%. Also, the “Test E disease control rating” value in the assay with Botrytis cinerea (setting [3]) amounted to 0%.

Regarding `CCC1(C(=O)NC(C)COc2cc(F)c(F)cc2F)C(C)C1(Cl)Cl` (centres unmarked) [compound 110], the “Test A disease control rating” value in assay [1] (tested at 40 ppm) was 90%. The “Test B disease control rating” value in the assay on Puccinia recondita (tested at 40 ppm) worked out at 0%. In addition, the “Test C disease control rating” value with Pyricularia oryzae (tested at 40 ppm) amounted to 97%. Moreover, the “Test D disease control rating” value in the assay with Phytophthora infestans (tested at 40 ppm) was determined as 0%. Besides, the “Test E disease control rating” value in the assay on Botrytis cinerea (tested at 40 ppm) is reported as 0%.

As to `CCCc1cccc(C#N)c1OCC(C)NC(=O)C(C#N)C(C)C(C)(C)C` (mixture of isomers) [compound 276], the “Test A disease control rating (100 = 100% disease control, 0 = no disease control)” value in assay [1] was 0%. The “Test B disease control rating (100 = 100% disease control, 0 = no disease control)” value in the assay on Puccinia recondita is recorded as 0%. In addition, the “Test C disease control rating (100 = 100% disease control, 0 = no disease control)” value in the assay with Pyricularia oryzae is 0%. The “Test D disease control rating (100 = 100% disease control, 0 = no disease control)” value in the assay on Phytophthora infestans stood at 0%. Also, the “Test E disease control rating (100 = 100% disease control, 0 = no disease control)” value with Botrytis cinerea is recorded as 94%.

For the compound `CCC1(C(=O)NC(C)COc2cc(C(C)(C)C)ccc2C#N)C(C)C1(Cl)Cl` (centres unmarked) [compound 248], in assay [1], the “Test A disease control rating (100 = 100% disease control, 0 = no disease control)” value was determined as 53%. Further, the “Test B disease control rating (100 = 100% disease control, 0 = no disease control)” value with Puccinia recondita amounted to 0%. Besides, the “Test C disease control rating (100 = 100% disease control, 0 = no disease control)” value in the assay with Pyricularia oryzae was 90%. Also, the “Test D disease control rating (100 = 100% disease control, 0 = no disease control)” value with Phytophthora infestans is reported as 62%. Further, the “Test E disease control rating (100 = 100% disease control, 0 = no disease control)” value in the assay with Botrytis cinerea amounted to 83%.

Take `CC(COc1cccc(F)c1)NC(=O)C(C#N)C(C)(C)C` (single isomer, unassigned) [3c]: in assay [1] (setting [2]), the “Test A disease control rating” value is given as 38%. In addition, in the assay on Puccinia recondita (setting [3]), the “Test B disease control rating” value came to 0%. Also, the “Test C disease control rating” value in the assay with Pyricularia oryzae (setting [3]) is reported as 100%. Moreover, the “Test D disease control rating” value in the assay with Phytophthora infestans (setting [3]) is given as 4%. Besides, in the assay with Botrytis cinerea (setting [3]), the “Test E disease control rating” value amounted to 0%.

Regarding `C[C@H](COc1ccc(F)cc1F)NC(=O)C(C#N)C(C)(C)C` (single isomer, unassigned) [27a], in assay [1] (setting [2]), the “Test A disease control rating” value is 38%. The “Test B disease control rating” value with Puccinia recondita (setting [3]) came out at 0%. In addition, the “Test C disease control rating” value in the assay on Pyricularia oryzae (setting [3]) was 100%. Also, the “Test D disease control rating” value with Phytophthora infestans (setting [3]) is 81%. The “Test E disease control rating” value in the assay on Botrytis cinerea (setting [3]) worked out at 0%.

Consider `CCC1(C(=O)NC(C)COn2c(C#N)cc(Cl)c2Cl)C(C)C1(Cl)Cl` (mixture of isomers) [compound 139], for which the “Test A disease control rating” value in assay [1] (setting [2]) is recorded as 71%. Besides, the “Test B disease control rating” value in the assay with Puccinia recondita (setting [3]) is 0%. In the assay on Pyricularia oryzae (setting [3]), the “Test C disease control rating” value was 91%. Further, in the assay on Phytophthora infestans (setting [3]), the “Test D disease control rating” value worked out at 0%. Also, the “Test E disease control rating” value in the assay with Botrytis cinerea (setting [3]) came out at 0%.

Regarding `C[C@H](COc1cc(Cl)cc(Cl)c1)NC(=O)C(C#N)C(C)(C)C` (single isomer, unassigned) [35b], the “Test A disease control rating” value in assay [1] (setting [2]) worked out at 37%. In addition, the “Test B disease control rating” value in the assay on Puccinia recondita (setting [3]) is given as 0%. In the assay on Pyricularia oryzae (setting [3]), the “Test C disease control rating” value was 91%. Besides, the “Test D disease control rating” value with Phytophthora infestans (setting [3]) is given as 0%. The “Test E disease control rating” value in the assay on Botrytis cinerea (setting [3]) was 0%.

Consider `C[C@H](COc1ccc(F)c(F)c1F)NC(=O)C(C#N)C(C)(C)C` (single isomer, unassigned) [190b], for which, in assay [1] (setting [2]), the “Test A disease control rating” value is recorded as 0%. The “Test B disease control rating” value in the assay with Puccinia recondita (setting [3]) is given as 0%. For the same compound, in the assay on Pyricularia oryzae (setting [3]), the “Test C disease control rating” value worked out at 94%. Also, the “Test D disease control rating” value with Phytophthora infestans (setting [3]) is reported as 0%. Further, in the assay on Botrytis cinerea (setting [3]), the “Test E disease control rating” value stood at 0%.

The values above are taken from patent US6642392B1 (priority 1997, dated 2003).
